System: not listed separately
Assay: Genotoxicity in Escherichia coli PQ37 expressing lacZ gene assessed as ratio of inducible beta-galactosidase activity to alkaline phosphatase activity at 30 mM after 2 hrs by SOS-chromotest relative to control
Assay type: toxicity
Conditions: Escherichia coli PQ37 cells expressing lacZ gene, read-out: FC

SMILES | fold induction at 2 h, 30000 µM
Cc1c(C)c2c(c(C)c1O)CCC(C)(C(=O)NCC1CC(C)(C)N([O])C1(C)C)O2 (stereo not drawn) | 1
Cc1c(C)c2c(c(C)c1OC(=O)CCC(=O)NC1CC(C)(C)N([O])C(C)(C)C1)CCC(C)(C(=O)NC1CC(C)(C)N([O])C(C)(C)C1)O2 (stereo not drawn) | 1

System: Salmonella typhimurium
Assay: Genotoxicity in Salmonella typhimurium TA102 harboring […] mutant assessed as frequency of reversion from histidine auxotrophy to prototrophy at 30 mM after 48 hrs by Ames test (reference value: 209 +/- 10 No _unit)
Assay type: toxicity, organism-based
Conditions: salmonella enterica subsp. enterica serovar typhimurium, 30000 µM

SMILES | Activity
Cc1c(C)c2c(c(C)c1O)CCC(C)(C(=O)NCC1CC(C)(C)N([O])C1(C)C)O2 (stereo not drawn) | 225
Cc1c(C)c2c(c(C)c1OC(=O)CCC(=O)NC1CC(C)(C)N([O])C(C)(C)C1)CCC(C)(C(=O)NC1CC(C)(C)N([O])C(C)(C)C1)O2 (stereo not drawn) | 203

System: Salmonella enterica subsp. enterica serovar Typhimurium
Assay: Antioxidant activity in Salmonella typhimurium TA102 harboring […] mutant assessed as inhibition of t-BuO2H-dependant mutant formation at 0.3 uM preincubated with compound followed by t-BuO2H addition after 48 hrs by Ames test
Assay type: functional
Conditions: not given

SMILES | inhibition
Cc1c(C)c2c(c(C)c1O)CCC(C)(C(=O)NCC1CC(C)(C)N([O])C1(C)C)O2 (stereo not drawn) | 26%
Cc1c(C)c2c(c(C)c1OC(=O)CCC(=O)NC1CC(C)(C)N([O])C(C)(C)C1)CCC(C)(C(=O)NC1CC(C)(C)N([O])C(C)(C)C1)O2 (stereo not drawn) | 7%

System: Salmonella enterica subsp. enterica serovar Typhimurium
Assay: Antioxidant activity in Salmonella typhimurium TA102 harboring […] mutant assessed as inhibition of t-BuO2H-dependant mutant formation at 3 uM preincubated with compound followed by t-BuO2H addition after 48 hrs by Ames test
Assay type: functional
Conditions: not given

SMILES | inhibition
Cc1c(C)c2c(c(C)c1O)CCC(C)(C(=O)NCC1CC(C)(C)N([O])C1(C)C)O2 (stereo not drawn) | 21.5%
Cc1c(C)c2c(c(C)c1OC(=O)CCC(=O)NC1CC(C)(C)N([O])C(C)(C)C1)CCC(C)(C(=O)NC1CC(C)(C)N([O])C(C)(C)C1)O2 (stereo not drawn) | 25%

System: Salmonella enterica subsp. enterica serovar Typhimurium
Assay: Antioxidant activity in Salmonella typhimurium TA102 harboring […] mutant assessed as inhibition of t-BuO2H-dependant mutant formation at 30 uM preincubated with compound followed by t-BuO2H addition after 48 hrs by Ames test
Assay type: functional
Conditions: not given

SMILES | inhibition
Cc1c(C)c2c(c(C)c1O)CCC(C)(C(=O)NCC1CC(C)(C)N([O])C1(C)C)O2 (stereo not drawn) | 17.7%
Cc1c(C)c2c(c(C)c1OC(=O)CCC(=O)NC1CC(C)(C)N([O])C(C)(C)C1)CCC(C)(C(=O)NC1CC(C)(C)N([O])C(C)(C)C1)O2 (stereo not drawn) | 25%

System: not listed separately
Assay: Cytotoxicity against human MCF7 cells assessed as reduction in cell viability after 72 hrs by MTT assay
Assay type: functional, cell-based
Conditions: MCF7, 72 h

SMILES | IC50
Cc1c(C)c2c(c(C)c1O)CCC(C)(C(=O)NCC1CC(C)(C)N([O])C1(C)C)O2 (stereo not drawn) | > 300 µM
Cc1c(C)c2c(c(C)c1OC(=O)CCC(=O)NC1CC(C)(C)N([O])C(C)(C)C1)CCC(C)(C(=O)NC1CC(C)(C)N([O])C(C)(C)C1)O2 (stereo not drawn) | 62 µM

System: not listed separately
Assay: Cytotoxicity against human RPMI8226 cells assessed as reduction in cell viability after 72 hrs by MTT assay
Assay type: functional, cell-based
Conditions: RPMI-8226, 72 h

SMILES | IC50
Cc1c(C)c2c(c(C)c1O)CCC(C)(C(=O)NCC1CC(C)(C)N([O])C1(C)C)O2 (stereo not drawn) | 70 µM
Cc1c(C)c2c(c(C)c1OC(=O)CCC(=O)NC1CC(C)(C)N([O])C(C)(C)C1)CCC(C)(C(=O)NC1CC(C)(C)N([O])C(C)(C)C1)O2 (stereo not drawn) | 68 µM

System: not listed separately
Assay: Cytotoxicity against human HepG2 cells assessed as reduction in cell viability after 72 hrs by MTT assay
Assay type: functional, cell-based
Conditions: HepG2, 72 h

SMILES | IC50
Cc1c(C)c2c(c(C)c1O)CCC(C)(C(=O)NCC1CC(C)(C)N([O])C1(C)C)O2 (stereo not drawn) | > 300 µM
Cc1c(C)c2c(c(C)c1OC(=O)CCC(=O)NC1CC(C)(C)N([O])C(C)(C)C1)CCC(C)(C(=O)NC1CC(C)(C)N([O])C(C)(C)C1)O2 (stereo not drawn) | 42 µM

System: not listed separately
Assay: Cytotoxicity against human CEM13 cells assessed as reduction in cell viability after 72 hrs by MTT assay
Assay type: functional, cell-based
Conditions: CEM13, 72 h

SMILES | IC50
Cc1c(C)c2c(c(C)c1O)CCC(C)(C(=O)NCC1CC(C)(C)N([O])C1(C)C)O2 (stereo not drawn) | > 300 µM
Cc1c(C)c2c(c(C)c1OC(=O)CCC(=O)NC1CC(C)(C)N([O])C(C)(C)C1)CCC(C)(C(=O)NC1CC(C)(C)N([O])C(C)(C)C1)O2 (stereo not drawn) | > 300 µM

System: not listed separately
Assay: Cytotoxicity against human U937 cells assessed as reduction in cell viability after 72 hrs by MTT assay
Assay type: functional, cell-based
Conditions: U-937, 72 h

SMILES | IC50
Cc1c(C)c2c(c(C)c1O)CCC(C)(C(=O)NCC1CC(C)(C)N([O])C1(C)C)O2 (stereo not drawn) | 134 µM
Cc1c(C)c2c(c(C)c1OC(=O)CCC(=O)NC1CC(C)(C)N([O])C(C)(C)C1)CCC(C)(C(=O)NC1CC(C)(C)N([O])C(C)(C)C1)O2 (stereo not drawn) | 72 µM

System: not listed separately
Assay: Cytotoxicity against human MT4 cells assessed as reduction in cell viability after 72 hrs by MTT assay
Assay type: functional, cell-based
Conditions: MT4, 72 h

SMILES | IC50
Cc1c(C)c2c(c(C)c1O)CCC(C)(C(=O)NCC1CC(C)(C)N([O])C1(C)C)O2 (stereo not drawn) | 231 µM
Cc1c(C)c2c(c(C)c1OC(=O)CCC(=O)NC1CC(C)(C)N([O])C(C)(C)C1)CCC(C)(C(=O)NC1CC(C)(C)N([O])C(C)(C)C1)O2 (stereo not drawn) | 41 µM

System: not listed separately
Assay: Cytotoxicity against mouse LMTK cells assessed as reduction in cell viability after 72 hrs by MTT assay
Assay type: toxicity
Conditions: not given

SMILES | IC50 at 72 h
Cc1c(C)c2c(c(C)c1O)CCC(C)(C(=O)NCC1CC(C)(C)N([O])C1(C)C)O2 (stereo not drawn) | 300 µM
Cc1c(C)c2c(c(C)c1OC(=O)CCC(=O)NC1CC(C)(C)N([O])C(C)(C)C1)CCC(C)(C(=O)NC1CC(C)(C)N([O])C(C)(C)C1)O2 (stereo not drawn) | 133 µM

System: not listed separately
Assay: Cytotoxicity against hamster AG17-1 cells assessed as reduction in cell viability after 72 hrs by MTT assay
Assay type: toxicity, cell-based, Cricetulus griseus
Conditions: Chinese hamster

SMILES | IC50 at 72 h
Cc1c(C)c2c(c(C)c1O)CCC(C)(C(=O)NCC1CC(C)(C)N([O])C1(C)C)O2 (stereo not drawn) | 192 µM
Cc1c(C)c2c(c(C)c1OC(=O)CCC(=O)NC1CC(C)(C)N([O])C(C)(C)C1)CCC(C)(C(=O)NC1CC(C)(C)N([O])C(C)(C)C1)O2 (stereo not drawn) | 54 µM

System: not listed separately
Assay: Cytotoxicity against human MCF7 cells assessed as reduction in cell viability at 300 uM after 72 hrs by MTT assay
Assay type: functional
Conditions: MCF7, 72 h

SMILES | inhibition at 300 µM
Cc1c(C)c2c(c(C)c1O)CCC(C)(C(=O)NCC1CC(C)(C)N([O])C1(C)C)O2 (stereo not drawn) | 34%

System: not listed separately
Assay: Cytotoxicity against human HepG2 cells assessed as reduction in cell viability at 300 uM after 72 hrs by MTT assay
Assay type: functional
Conditions: HepG2, 72 h

SMILES | inhibition at 300 µM
Cc1c(C)c2c(c(C)c1O)CCC(C)(C(=O)NCC1CC(C)(C)N([O])C1(C)C)O2 (stereo not drawn) | 38%

System: not listed separately
Assay: Cytotoxicity against human CEM13 cells assessed as reduction in cell viability at 300 uM after 72 hrs by MTT assay
Assay type: functional
Conditions: CEM13, 72 h

SMILES | inhibition at 300 µM
Cc1c(C)c2c(c(C)c1O)CCC(C)(C(=O)NCC1CC(C)(C)N([O])C1(C)C)O2 (stereo not drawn) | 32%
Cc1c(C)c2c(c(C)c1OC(=O)CCC(=O)NC1CC(C)(C)N([O])C(C)(C)C1)CCC(C)(C(=O)NC1CC(C)(C)N([O])C(C)(C)C1)O2 (stereo not drawn) | 33%

System: not listed separately
Assay: Cytotoxicity against mouse LMTK cells assessed as reduction in cell viability at 300 uM after 72 hrs by MTT assay
Assay type: toxicity
Conditions: read-out: INH

SMILES | cytotoxicity at 72 h, 300 µM
Cc1c(C)c2c(c(C)c1O)CCC(C)(C(=O)NCC1CC(C)(C)N([O])C1(C)C)O2 (stereo not drawn) | 25%

System: not listed separately
Assay: Ratio of IC50 for human MCF7 cells to concentration causing antioxidant activity in Salmonella typhimurium TA102 harboring […] mutant
Assay type: functional
Conditions: not given

SMILES | Ratio
Cc1c(C)c2c(c(C)c1O)CCC(C)(C(=O)NCC1CC(C)(C)N([O])C1(C)C)O2 (stereo not drawn) | 100 - 1000
Cc1c(C)c2c(c(C)c1OC(=O)CCC(=O)NC1CC(C)(C)N([O])C(C)(C)C1)CCC(C)(C(=O)NC1CC(C)(C)N([O])C(C)(C)C1)O2 (stereo not drawn) | 100 - 1000

System: not listed separately
Assay: Ratio of IC50 for human RPMI8226 cells to concentration causing antioxidant activity in Salmonella typhimurium TA102 harboring […] mutant
Assay type: functional, RPMI-8226
Conditions: not given

SMILES | Ratio
Cc1c(C)c2c(c(C)c1O)CCC(C)(C(=O)NCC1CC(C)(C)N([O])C1(C)C)O2 (stereo not drawn) | 100 - 1000
Cc1c(C)c2c(c(C)c1OC(=O)CCC(=O)NC1CC(C)(C)N([O])C(C)(C)C1)CCC(C)(C(=O)NC1CC(C)(C)N([O])C(C)(C)C1)O2 (stereo not drawn) | 100 - 1000

System: not listed separately
Assay: Ratio of IC50 for human HEPG2 cells to concentration causing antioxidant activity in Salmonella typhimurium TA102 harboring […] mutant
Assay type: functional
Conditions: not given

SMILES | Ratio
Cc1c(C)c2c(c(C)c1O)CCC(C)(C(=O)NCC1CC(C)(C)N([O])C1(C)C)O2 (stereo not drawn) | 100 - 1000
Cc1c(C)c2c(c(C)c1OC(=O)CCC(=O)NC1CC(C)(C)N([O])C(C)(C)C1)CCC(C)(C(=O)NC1CC(C)(C)N([O])C(C)(C)C1)O2 (stereo not drawn) | 100 - 1000

System: not listed separately
Assay: Ratio of IC50 for human CEM13 cells to concentration causing antioxidant activity in Salmonella typhimurium TA102 harboring […] mutant
Assay type: functional
Conditions: not given

SMILES | Ratio
Cc1c(C)c2c(c(C)c1O)CCC(C)(C(=O)NCC1CC(C)(C)N([O])C1(C)C)O2 (stereo not drawn) | 100 - 1000
Cc1c(C)c2c(c(C)c1OC(=O)CCC(=O)NC1CC(C)(C)N([O])C(C)(C)C1)CCC(C)(C(=O)NC1CC(C)(C)N([O])C(C)(C)C1)O2 (stereo not drawn) | 100 - 1000

System: not listed separately
Assay: Ratio of IC50 for human MT4 cells to concentration causing antioxidant activity in Salmonella typhimurium TA102 harboring […] mutant
Assay type: functional
Conditions: not given

SMILES | Ratio
Cc1c(C)c2c(c(C)c1O)CCC(C)(C(=O)NCC1CC(C)(C)N([O])C1(C)C)O2 (stereo not drawn) | 100 - 1000
Cc1c(C)c2c(c(C)c1OC(=O)CCC(=O)NC1CC(C)(C)N([O])C(C)(C)C1)CCC(C)(C(=O)NC1CC(C)(C)N([O])C(C)(C)C1)O2 (stereo not drawn) | 100 - 1000

System: not listed separately
Assay: Ratio of IC50 for human U937 cells to concentration causing antioxidant activity in Salmonella typhimurium TA102 harboring […] mutant
Assay type: functional, U-937
Conditions: not given

SMILES | Ratio
Cc1c(C)c2c(c(C)c1O)CCC(C)(C(=O)NCC1CC(C)(C)N([O])C1(C)C)O2 (stereo not drawn) | 100 - 1000
Cc1c(C)c2c(c(C)c1OC(=O)CCC(=O)NC1CC(C)(C)N([O])C(C)(C)C1)CCC(C)(C(=O)NC1CC(C)(C)N([O])C(C)(C)C1)O2 (stereo not drawn) | 100 - 1000
